From publication PMC3401165, “Regulation of the Cyanobacterial CO2-Concentrating Mechanism Involves Internal Sensing of NADP^+ and α-Ketogutarate Levels by Transcription Factor CcmR” (PLoS ONE, 2012) come the findings set out here.

One data set addresses T1, CmpR (Synechocystis sp. PCC 6803, UniProt Q55459).
T1 construct: heterologously expressed in E. coli by essentially the same approach as His-tagged CcmR
T1 sequence (Q55459 1-304): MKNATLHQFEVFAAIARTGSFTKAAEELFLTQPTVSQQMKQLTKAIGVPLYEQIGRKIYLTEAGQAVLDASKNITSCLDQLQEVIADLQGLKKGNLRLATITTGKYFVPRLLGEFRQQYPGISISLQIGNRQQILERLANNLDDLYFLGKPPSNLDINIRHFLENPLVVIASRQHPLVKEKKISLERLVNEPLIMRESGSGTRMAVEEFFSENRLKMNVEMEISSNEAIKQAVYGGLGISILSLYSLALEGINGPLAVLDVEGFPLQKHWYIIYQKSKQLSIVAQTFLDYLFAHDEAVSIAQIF
Description: SPR difference curves, CmpR binding to immobilised operator DNA. The conditions noted are these: 1.5 µM CmpR; ligand 10, 100, 500 µM; cmpA promoter DNA; effector (co-activator).

The target in a further data set is T2, CcmR (Synechocystis sp. PCC 6803, UniProt P73862).
T2 construct: gene rbcR; recombinant N-terminally His-tagged, heterologously expressed
T2 sequence (P73862 1-316): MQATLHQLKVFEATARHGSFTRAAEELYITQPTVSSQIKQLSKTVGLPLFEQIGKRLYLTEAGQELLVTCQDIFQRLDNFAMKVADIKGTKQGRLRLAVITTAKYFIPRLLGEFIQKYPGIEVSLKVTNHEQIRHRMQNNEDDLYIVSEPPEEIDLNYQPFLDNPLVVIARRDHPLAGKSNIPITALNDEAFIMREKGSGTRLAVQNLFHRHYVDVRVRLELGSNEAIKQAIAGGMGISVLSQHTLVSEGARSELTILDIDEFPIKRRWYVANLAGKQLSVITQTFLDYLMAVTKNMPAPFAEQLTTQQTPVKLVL
Briefly: SPR difference curves, CcmR binding to immobilised operator DNA. To be noted: 1.5 µM CcmR; ligand 10, 100, 500 µM; pndhF3 DNA; 10 mM Pipes pH 7.4, 300 mM NaCl; effector (co-repressor).

In data set [1] the test system is T3, CcmR (Synechocystis sp. PCC 6803), ORF:206cd751.
T3 sequence: T2 sequence (P73862 1-316)
Briefly: SPR. To be noted: SPR: 10 mM Pipes pH 7.4, 300 mM NaCl, 0.02% Tween-20, 25 uL/min, temperature not stated; EMSA: room temperature 20 min, 6% native PAGE (50 mM Tris pH 8.5 …). (Mobility shift assays separate free from complexed probe on a gel.)

As for `O=C(O)COP(=O)(O)O` [2-phosphoglycolate], at CmpR, the “SPR difference curves, CmpR binding to immobilised operator DNA” value was “the presence of 2-PG and RuBP increased binding”.
Regarding `NC(=O)c1ccc[n+]([C@@H]2O[C@H](COP(=O)(O)OP(=O)(O)OC[C@H]3O[C@@H](n4cnc5c(N)ncnc54)[C@H](OP(=O)(O)O)[C@@H]3O)[C@@H](O)[C@H]2O)c1` [NADP^+], the “SPR difference curves, CcmR binding to immobilised operator DNA” value on CcmR is “CcmR only showed modified binding only in the presence of NADP^+ and α-KG”.
As for `O=C(COP(=O)(O)O)[C@H](O)[C@H](O)COP(=O)(O)O` [ribulose-1,5-bisphosphate], the “SPR difference curves, CmpR binding to immobilised operator DNA” value on CmpR is “the presence of 2-PG and RuBP increased binding”.
In the case of `O=C(O)CCC(=O)C(=O)O` [α-KG], at CcmR, the “SPR difference curves, CcmR binding to immobilised operator DNA” value is “CcmR only showed modified binding only in the presence of NADP^+ and α-KG”.
Consider “AGTCAAGCGACAATGGTATAACCTAGATGCATAGAAAGAGTGTTATTTGTTACACCATATCATAGGGGAAATAAAATTCCAGATCAACAACCATTTGCTTAAGTGAATGATAAGTCTGGGTAATTGGAGGAAGAGGCAGGCTA (double strand) [pndhF3-2]”, for which the binding entry in data set [1] is “binds”.
Consider “GCTCCCCGGACTAAGCTTGTCAAAATCATTGGCTTTATTCTATCATTGGTTATCTAACAACAATCCCAGGTCTATGAAAGTGAGTGTAATAGCCATAGGTCTATTTTAGTTATTGACTTCAGCACATCCTAGACCCAAG (double strand) [pccmR (SPR)]”, for which the binding entry in data set [1] is “binds”.
